Results: patent US20240299352A1, “COMBINATION THERAPIES WITH SETD2 INHIBITORS” (Epizyme, Inc., priority 2021, published 2024)

How the values were obtained:
DB = experiment: Co-treatment combination study with Cpd. No. 15, CellTiter-Glo viability, Loewe Volume; type: cell-based; conditions: in combination with Cpd. No. 15, seven days, DLBCL cell line DB
Procedure: (§1) Mantle cell lymphoma (MCL) and diffuse large B-cell lymphoma (DLBCL) cell line cultures in log-linear growth rate were treated with combinations of Cpd. No. 15 and combination partners according to a co-treatment model. […] No. 15 and the combination partner. […] Each combination was tested in quadruplicate wells. The final concentration of DMSO (vehicle) in the assay was 0.1% v/v. Fifty microliters of cell line suspension were directly dispensed to the assay-ready plates with an automated multichannel dispenser on to 384-well assay-ready plates. Assay plates were incubated for seven days unless otherwise indicated in a humidified atmosphere of 5% CO2 at 37° C. Quantification of the effect of single agents or combinations on cell viability was performed through measurement of cellular adenosine triphosphate (ATP) using a CellTiter-Glo® (Promega, Madison, WI) Luminescent Cell Viability Assay. Luminescence was detected using a SpectraMax M5 microplate reader (Molecular Devices, Sunnyvale, CA). Concentration response plots were generated in GraphPad Prism version 7.0 for Windows, GraphPad Software, (La Jolla, California) and curves fitted to a four-parameter logistic model with variable slope. Percent of inhibition was calculated at each treatment concentration.

DOHH2 = experiment: as above; type: cell-based; conditions: in combination with Cpd. No. 15, seven days, DLBCL cell line DOHH2
Procedure: as §1

HT = experiment: as above; type: cell-based; conditions: in combination with Cpd. No. 15, seven days, DLBCL cell line HT
Procedure: as §1

KARPAS422 = experiment: as above; type: cell-based; conditions: in combination with Cpd. No. 15, seven days, DLBCL cell line KARPAS422
Procedure: as §1

Pfeiffer = experiment: as above; type: cell-based; conditions: in combination with Cpd. No. 15, seven days, DLBCL cell line Pfeiffer
Procedure: as §1

SUDHL10 = experiment: as above; type: cell-based; conditions: in combination with Cpd. No. 15; 5-Day Cotreatment; DLBCL cell line SUDHL10
Procedure: as §1

SUDHL2 = experiment: as above; type: cell-based; conditions: in combination with Cpd. No. 15, seven days, DLBCL cell line SUDHL2
Procedure: as §1

SUDHL5 = experiment: as above; type: cell-based; conditions: in combination with Cpd. No. 15, seven days, DLBCL cell line SUDHL5
Procedure: as §1

SUDHL8 = experiment: as above; type: cell-based; conditions: in combination with Cpd. No. 15, seven days, DLBCL cell line SUDHL8
Procedure: as §1

TOLEDO = experiment: as above; type: cell-based; conditions: in combination with Cpd. No. 15, seven days, DLBCL cell line TOLEDO
Procedure: as §1

WILL2 = experiment: as above; type: cell-based; conditions: in combination with Cpd. No. 15, seven days, DLBCL cell line WILL2
Procedure: as §1

WSUNHL = experiment: as above; type: cell-based; conditions: in combination with Cpd. No. 15, seven days, DLBCL cell line WSUNHL
Procedure: as §1

[1] = system: diffuse large B-cell lymphoma (DLBCL) cell lines; experiment: Co-treatment combination study with Cpd. No. 15, further cell lines (Table F), CellTiter-Glo viability, Loewe Volume; type: cell-based; conditions: for Combination effect with Cpd. No. 15 (Loewe Volume class), Ri1: co-treatment with Cpd. No. 15, cell line Ri1 (Cat. No. 96090512-1VL); for Combination effect with Cpd. No. 15 (Loewe Volume class), TMD8: co-treatment with Cpd. No. 15, cell line TMD8 (Cat. No. M-097); for Combination effect with Cpd. No. 15 (Loewe Volume class), WILL1: co-treatment with Cpd. No. 15, cell line WILL1 (Cat. No. ACC 651)
Procedure: as §1

[2] = system: diffuse large B-cell lymphoma (DLBCL) cell lines; experiment: Pre-treatment model combination study with Cpd. No. 15 (7 days pre-treatment, then combination; Table G), CellTiter-Glo viability, Loewe Volume; conditions: 7 days pre-treatment with Cpd. No. 15, then combination
RL = experiment: Co-treatment combination study with Cpd. No. 15, CellTiter-Glo viability, Loewe Volume; type: cell-based; conditions: in combination with Cpd. No. 15; 6-Day Cotreatment; DLBCL cell line RL
Procedure: as §1

SUDHL4 = experiment: as above; type: cell-based; conditions: in combination with Cpd. No. 15, seven days, DLBCL cell line SUDHL4
Procedure: as §1

SUDHL6 = experiment: as above; type: cell-based; conditions: in combination with Cpd. No. 15, seven days, DLBCL cell line SUDHL6
Procedure: as §1

WSUDLCL2 = experiment: as above; type: cell-based; conditions: in combination with Cpd. No. 15, seven days, DLBCL cell line WSUDLCL2
Procedure: as §1

GRANTA519 = experiment: as above; type: cell-based; conditions: in combination with Cpd. No. 15, seven days, mantle cell lymphoma cell line GRANTA519 (ACC 342)
Procedure: as §1

JEKO1 = experiment: as above; type: cell-based; conditions: in combination with Cpd. No. 15, seven days, mantle cell lymphoma cell line JEKO1 (CRL-3006)
Procedure: as §1

JVM2 = experiment: as above; type: cell-based; conditions: in combination with Cpd. No. 15, seven days, mantle cell lymphoma cell line JVM2 (CRL-3002)
Procedure: as §1

MAVER1 = experiment: as above; type: cell-based; conditions: in combination with Cpd. No. 15, seven days, mantle cell lymphoma cell line MAVER1 (CRL-3008)
Procedure: as §1

MINO = experiment: as above; type: cell-based; conditions: in combination with Cpd. No. 15, seven days, mantle cell lymphoma cell line MINO (CRL-3000)
Procedure: as §1

REC1 = experiment: as above; type: cell-based; conditions: in combination with Cpd. No. 15, seven days, mantle cell lymphoma cell line REC1 (CRL-3004)
Procedure: as §1

Z138 = experiment: as above; type: cell-based; conditions: in combination with Cpd. No. 15, seven days, mantle cell lymphoma cell line Z138 (CRL-3001)
Procedure: as §1

## N.N.O=C([O-])C1(C(=O)[O-])CCC1.[Pt+2] [Carboplatin, carboplatin]
DB
  Combination effect (Loewe Volume) DB: Additivity (between 1 and −1: additivity)
DOHH2
  Combination effect (Loewe Volume) DOHH2: Additivity (between 1 and −1: additivity)
HT
  Combination effect (Loewe Volume) HT: Additivity (between 1 and −1: additivity)
KARPAS422
  Combination effect (Loewe Volume) KARPAS422: Additivity (between 1 and −1: additivity)
Pfeiffer
  Combination effect (Loewe Volume) Pfeiffer: Additivity (between 1 and −1: additivity)
SUDHL10
  Combination effect (Loewe Volume) SUDHL10: Additivity (between 1 and −1: additivity)
SUDHL2
  Combination effect (Loewe Volume) SUDHL2: Additivity (between 1 and −1: additivity)
SUDHL5
  Combination effect (Loewe Volume) SUDHL5: Additivity (between 1 and −1: additivity)
SUDHL8
  Combination effect (Loewe Volume) SUDHL8: Synergy (VLoewe>1: synergy)
TOLEDO
  Combination effect (Loewe Volume) TOLEDO: Additivity (between 1 and −1: additivity)
WILL2
  Combination effect (Loewe Volume) WILL2: Additivity (between 1 and −1: additivity)
WSUNHL
  Combination effect (Loewe Volume) WSUNHL: Synergy (VLoewe>1: synergy)
[1]
  Combination effect with Cpd. No. 15 (Loewe Volume class), Ri1: Additivity (between 1 and −1: additivity)
  Combination effect with Cpd. No. 15 (Loewe Volume class), TMD8: Additivity (between 1 and −1: additivity)
  Combination effect with Cpd. No. 15 (Loewe Volume class), WILL1: Additivity (between 1 and −1: additivity)
[2]; cell line Farage (Cat. No. CRL-2630)
  Combination effect with Cpd. No. 15 (Loewe Volume class), Farage: Additivity (between 1 and −1: additivity)
[2]; cell line HT (Cat. No. CRL-2631)
  Combination effect with Cpd. No. 15 (Loewe Volume class), HT: Synergy (VLoewe>1: synergy)
[2]; cell line OCILY7 (Cat. No. ACC 688)
  Combination effect with Cpd. No. 15 (Loewe Volume class), OCILY7: Additivity (between 1 and −1: additivity)
[2]; cell line WILL2 (Cat. No. ACC 652)
  Combination effect with Cpd. No. 15 (Loewe Volume class), WILL2: Synergy (VLoewe>1: synergy)

## CNC[C@@H](O)COc1ccc(Cl)c(-c2nc(-c3c(C)noc3C)c(C)c(N3CC4(CCN(C(=O)OC)CC4)C3)n2)c1 [EPZ-2302]
DB
  Combination effect (Loewe Volume) DB: No Effect
DOHH2
  Combination effect (Loewe Volume) DOHH2: Synergy (VLoewe>1: synergy)
HT
  Combination effect (Loewe Volume) HT: Synergy (VLoewe>1: synergy)
KARPAS422
  Combination effect (Loewe Volume) KARPAS422: Synergy (VLoewe>1: synergy)
Pfeiffer
  Combination effect (Loewe Volume) Pfeiffer: No Effect
RL
  Combination effect (Loewe Volume) RL: Synergy (VLoewe>1: synergy)
SUDHL10
  Combination effect (Loewe Volume) SUDHL10: No Effect
SUDHL2
  Combination effect (Loewe Volume) SUDHL2: Synergy (VLoewe>1: synergy)
SUDHL4
  Combination effect (Loewe Volume) SUDHL4: Synergy (VLoewe>1: synergy)
SUDHL5
  Combination effect (Loewe Volume) SUDHL5: Additivity (between 1 and −1: additivity)
SUDHL6
  Combination effect (Loewe Volume) SUDHL6: Synergy (VLoewe>1: synergy)
SUDHL8
  Combination effect (Loewe Volume) SUDHL8: No Effect
TOLEDO
  Combination effect (Loewe Volume) TOLEDO: Synergy (VLoewe>1: synergy)
WILL2
  Combination effect (Loewe Volume) WILL2: Synergy (VLoewe>1: synergy)
WSUDLCL2
  Combination effect (Loewe Volume) WSUDLCL2: Synergy (VLoewe>1: synergy)
WSUNHL
  Combination effect (Loewe Volume) WSUNHL: Synergy (VLoewe>1: synergy)
[1]
  Combination effect with Cpd. No. 15 (Loewe Volume class), Ri1: Synergy (VLoewe>1: synergy)
  Combination effect with Cpd. No. 15 (Loewe Volume class), TMD8: Synergy (VLoewe>1: synergy)
  Combination effect with Cpd. No. 15 (Loewe Volume class), WILL1: Synergy (VLoewe>1: synergy)

## rituximab
DB
  Combination effect (Loewe Volume) DB: No Effect
DOHH2
  Combination effect (Loewe Volume) DOHH2: Synergy (VLoewe>1: synergy)
GRANTA519
  Combination effect (Loewe Volume) GRANTA519: Additivity (between 1 and −1: additivity)
HT
  Combination effect (Loewe Volume) HT: Additivity (between 1 and −1: additivity)
JEKO1
  Combination effect (Loewe Volume) JEKO1: Synergy (VLoewe>1: synergy)
JVM2
  Combination effect (Loewe Volume) JVM2: Additivity (between 1 and −1: additivity)
KARPAS422
  Combination effect (Loewe Volume) KARPAS422: No Effect
MAVER1
  Combination effect (Loewe Volume) MAVER1: Synergy (VLoewe>1: synergy)
MINO
  Combination effect (Loewe Volume) MINO: No Effect
Pfeiffer
  Combination effect (Loewe Volume) Pfeiffer: No Effect
REC1
  Combination effect (Loewe Volume) REC1: Additivity (between 1 and −1: additivity)
SUDHL10
  Combination effect (Loewe Volume) SUDHL10: Additivity (between 1 and −1: additivity)
SUDHL2
  Combination effect (Loewe Volume) SUDHL2: No Effect
SUDHL6
  Combination effect (Loewe Volume) SUDHL6: Synergy (VLoewe>1: synergy)
SUDHL8
  Combination effect (Loewe Volume) SUDHL8: Additivity (between 1 and −1: additivity)
TOLEDO
  Combination effect (Loewe Volume) TOLEDO: Additivity (between 1 and −1: additivity)
WILL2
  Combination effect (Loewe Volume) WILL2: Additivity (between 1 and −1: additivity)
WSUNHL
  Combination effect (Loewe Volume) WSUNHL: Additivity (between 1 and −1: additivity)
Z138
  Combination effect (Loewe Volume) Z138: No Effect
[1]
  Combination effect with Cpd. No. 15 (Loewe Volume class), Ri1: Additivity (between 1 and −1: additivity)
  Combination effect with Cpd. No. 15 (Loewe Volume class), TMD8: No Effect
  Combination effect with Cpd. No. 15 (Loewe Volume class), WILL1: No Effect
